From US20120258980A1, “Antibacterial Agent for Drug-Resistant Bacteria, Method for Screening for Same, and Use of Same” (priority 2009, published 2012)
In brackets after ≈: the same amount, converted by molar mass. Where two headings read alike, the source gives them in different places.

Key:
[1] = tested on: VRSA clinical isolates; assay: microbe, parasite or virus in culture; format: cell-based; conditions: Staphylococcus aureus
Method: (§1) Each of the bacterial strains listed in Table 1-1 was shake-cultured at 37° C. overnight in 4 mL of a medium (Tryptical Soy Broth: TSB, product of Becton Dickinson and Company). FDA209P was used as a control.
(§2) After completion of culturing, the resultant culture was suspended in a cation-adjusted Mueller Hinton Broth (CAMHB, product of Becton Dickinson and Company). Then, the obtained bacterial culture was adjusted in absorbance with the CAMHB so that the absorbance at 578 nm of the bacterial culture was adjusted to 0.3 measured by an absorption spectrometer. In addition, the resultant bacterial culture was 500-fold diluted with the CAMHB.
(§3) Each of the 500-fold diluted, pre-cultured bacterial cultures was added at 50 μL/well to the CAMHB containing the quinolones and the nybomycins at various concentrations (50 μL/well), followed by statically culturing at 37° C. overnight.
(§4) After completion of culturing, the growth of the bacteria was visually determined based on turbidity to measure MIC in each bacterial strain.
Here, the glycopeptides used were VCM and TEIC. The β-lactam used was OXA.

[2] = tested on: methicillin-susceptible S. aureus (MSSA), MRSA and mutants thereof; assay: MIC measurement, Test Example 3 (MSSA, MRSA and sequential gyrA/grlA quinolone-resistant mutants); format: cell-based, Staphylococcus aureus; conditions: for MIC: Staphylococcus aureus
Text: That is, the first-step quinolone-resistant mutants are bacterial strains which are the same as their parent strains (clinical isolates) except that the genes shown in the corresponding parts of Table 1-1 are mutated. The second-step quinolone-resistant mutants are bacterial strains which are the same as the first-step quinolone-resistant mutants except that the genes shown in the corresponding parts of Table 1-1 are further mutated. The third-step quinolone-resistant mutants are bacterial strains which are the same as the second-step quinolone-resistant mutants except that the genes shown in the corresponding parts of Table 1-1 are further mutated. The fourth-step quinolone-resistant strain is a bacterial strain which is the same as the third-step quinolone-resistant mutant bacteria except that the gene shown in the corresponding part of Table 1-1 is further mutated.
as §1, §2, §3, §4

[3] = tested on: Enterococcus faecalis; assay: MIC measurement, Test Example 6 (enterococcus); format: cell-based; conditions: Enterococcus faecalis, read-out: MIC
Method: as §1, §2, §3, §4
Quinolones and nybomycins were evaluated for antibacterial activity against Enterococcus faecalis shown in Table 6, wherein the other strains than NCTC12201 and NCTC12203 were subdivided from Shionogi & Co., Ltd (note that these strains are available also from the Department of Bacteriology, Juntendo University). The NCTC strains are both vancomycin-resistant E. faecalis and available from the National Collection of Type Cultures (NCTC).

[4] = tested on: MRSA, CA-MRSA and MSSA of Staphylococcus aureus; assay: MIC measurement, Test Example 4 (MRSA, CA-MRSA and MSSA strains); format: cell-based; conditions: for MIC: Staphylococcus aureus
Method: as §1, §2, §3, §4
Glycopeptides, imipenem, quinolones and nybomycins were studied for antibacterial activity against the bacterial strains listed in Table 2-1; i.e., MRSA, CA-MRSA and MSSA of Staphylococcus aureus.

[5] = MR5867-4, fourth-step mutant, further gyrA E88K
[6] = MS5935-3, third-step mutant, further grlA E84K
[7] = MS5952-3, third-step mutant, further grlA A116V
[8] = E. faecalis 36-15672, quinolone-susceptible enterococci
[9] = E. faecalis 36-15673, quinolone-susceptible enterococci
[10] = E. faecalis 36-15678, quinolone-susceptible enterococci
[11] = E. faecalis 36-15686, quinolone-resistant enterococci
[12] = E. faecalis 36-15688, quinolone-susceptible enterococci
[13] = E. faecalis 36-15694, quinolone-resistant enterococci
[14] = E. faecalis 36-15696, quinolone-susceptible enterococci
[15] = E. faecalis 36-15703, quinolone-resistant enterococci
[16] = E. faecalis 36-15716, quinolone-resistant enterococci
[17] = E. faecalis 36-15718, quinolone-susceptible enterococci
[18] = E. faecalis 36-15720, quinolone-susceptible enterococci
[19] = E. faecalis 36-15722, quinolone-resistant enterococci
[20] = E. faecalis 36-15726, quinolone-resistant enterococci
[21] = E. faecalis 36-15730, quinolone-susceptible enterococci
[22] = E. faecalis 36-15736, quinolone-susceptible enterococci
[23] = E. faecalis 36-15741, quinolone-susceptible enterococci
[24] = NCTC 12201 / VRE, E. faecalis NCTC12201, vancomycin-resistant (VRE), quinolone-susceptible enterococci
[25] = NCTC 12203 / VRE, E. faecalis NCTC12203, vancomycin-resistant (VRE), quinolone-susceptible enterococci
[26] = ATCC 29213 / MRSA / MSSA, ATCC 29213, MSSA
[27] = FDA209P / MRSA / MSSA, FDA209P, MSSA
[28] = MRSA / MSSA / NCTC 8325, NCTC 8325, MSSA
[29] = MRSA / MSSA / USA300, USA300 FPR3757, CA-MRSA

## Cc1cc(=O)n(C)c2c3c4c(cc12)c(C)cc(=O)n4CO3 [DNM, deoxynybomycin]
[1]; VRS1, VRSA, Michigan
  MIC: ≤ 0.063 µg/mL
[1]; VRS2, VRSA, Pennsylvania
  MIC: 0.125 µg/mL (≈ 0.443 µM)
[1]; VRS3, VRSA, New York
  MIC: ≤ 0.063 µg/mL
[1]; VRS4, VRSA, New York
  MIC: ≤ 0.063 µg/mL
[1]; VRS5, VRSA, Michigan
  MIC: ≤ 0.063 µg/mL
[1]; VRS6, VRSA, Michigan
  MIC: ≤ 0.063 µg/mL
[1]; VRS7, VRSA, Michigan
  MIC: 0.125 µg/mL (≈ 0.443 µM)
[2]; MR5867-2, second-step mutant, further gyrA S84L
  MIC: ≤ 0.063 µg/mL
[2]; MR5867-3, third-step mutant, further grlA S80F
  MIC: ≤ 0.063 µg/mL
[2]; [5]
  MIC: ≤ 0.063 µg/mL
[2]; MS5935-2, second-step mutant, further gyrA S84L
  MIC: 0.5 µg/mL (≈ 1.77 µM)
[2]; [6]
  MIC: 0.5 µg/mL (≈ 1.77 µM)
[2]; MS5952-2, second-step mutant, further gyrA S84L
  MIC: 0.5 µg/mL (≈ 1.77 µM)
[2]; [7]
  MIC: ≤ 0.063 µg/mL
[2]; Table 1-2 strains
  antibacterial activity, comparison between NM and DNM: higher than that of NM
[3]; [8]
  MIC: > 64 µg/mL
[3]; [9]
  MIC: > 64 µg/mL
[3]; [10]
  MIC: > 64 µg/mL
[3]; [11]
  MIC: 2 µg/mL (≈ 7.08 µM)
[3]; [12]
  MIC: > 64 µg/mL
[3]; [13]
  MIC: 2 µg/mL (≈ 7.08 µM)
[3]; [14]
  MIC: > 64 µg/mL
[3]; [15]
  MIC: 0.25 µg/mL (≈ 0.886 µM)
[3]; [16]
  MIC: 4 µg/mL (≈ 14.2 µM)
[3]; [17]
  MIC: 32 µg/mL (≈ 113 µM)
[3]; [18]
  MIC: > 64 µg/mL
[3]; [19]
  MIC: 4 µg/mL (≈ 14.2 µM)
[3]; [20]
  MIC: 2 µg/mL (≈ 7.08 µM)
[3]; [21]
  MIC: 64 µg/mL (≈ 227 µM)
[3]; [22]
  MIC: > 64 µg/mL
[3]; [23]
  MIC: > 64 µg/mL
[3]; [24]
  MIC: 16 µg/mL (≈ 56.7 µM)
[3]; [25]
  MIC: > 64 µg/mL
[4]; [26]
  MIC: 16 µg/mL (≈ 56.7 µM)
[4]; COL, MRSA
  MIC: > 64 µg/mL
[4]; [27]
  MIC: 8 µg/mL (≈ 28.3 µM)
[4]; ISA12-1, MRSA
  MIC: 32 µg/mL (≈ 113 µM)
[4]; ISA12-2, MRSA
  MIC: 16 µg/mL (≈ 56.7 µM)
[4]; ISA35-1, MRSA
  MIC: 64 µg/mL (≈ 227 µM)
[4]; ISA37-1, MSSA
  MIC: > 64 µg/mL
[4]; ISA49-1, MSSA
  MIC: 16 µg/mL (≈ 56.7 µM)
[4]; ISA51-1, MSSA
  MIC: 8 µg/mL (≈ 28.3 µM)
[4]; ISA56-3, MRSA
  MIC: > 64 µg/mL
[4]; ISA58-1, MRSA
  MIC: 8 µg/mL (≈ 28.3 µM)
[4]; ISA62-1, MRSA
  MIC: > 64 µg/mL
[4]; ISA73-1, MSSA
  MIC: > 64 µg/mL
[4]; KBSA32, MRSA
  MIC: 32 µg/mL (≈ 113 µM)
[4]; KBSA34, MRSA
  MIC: > 64 µg/mL
[4]; KBSA72, MRSA
  MIC: ≤ 0.063 µg/mL
[4]; KBSA96, MRSA
  MIC: ≤ 0.063 µg/mL
[4]; KBSA171, MRSA
  MIC: ≤ 0.063 µg/mL
[4]; KSA24, MRSA
  MIC: 0.125 µg/mL (≈ 0.443 µM)
[4]; KSA31, MRSA
  MIC: 0.25 µg/mL (≈ 0.886 µM)
[4]; KSA36, MRSA
  MIC: ≤ 0.063 µg/mL
[4]; [28]
  MIC: > 64 µg/mL
[4]; [29]
  MIC: 0.125 µg/mL (≈ 0.443 µM)
[4]; MW2, CA-MRSA
  MIC: 64 µg/mL (≈ 227 µM)
[4]; N315, MRSA
  MIC: 32 µg/mL (≈ 113 µM)
[4]; against Staphylococcus aureus
  antibacterial activity, comparison between NM and DNM: higher than that of NM

## C[C@H]1COc2c(N3CCN(C)CC3)c(F)cc3c(=O)c(C(=O)O)cn1c23 [LVFX, levofloxacin]
[1]; VRS1, VRSA, Michigan
  MIC: 16 µg/mL (≈ 44.3 µM)
[1]; VRS2, VRSA, Pennsylvania
  MIC: 16 µg/mL (≈ 44.3 µM)
[1]; VRS3, VRSA, New York
  MIC: 16 µg/mL (≈ 44.3 µM)
[1]; VRS4, VRSA, New York
  MIC: 32 µg/mL (≈ 88.6 µM)
[1]; VRS5, VRSA, Michigan
  MIC: > 128 µg/mL
[1]; VRS6, VRSA, Michigan
  MIC: 32 µg/mL (≈ 88.6 µM)
[1]; VRS7, VRSA, Michigan
  MIC: 32 µg/mL (≈ 88.6 µM)
[2]; FDA209P / MRSA / MSSA, FDA209P (MSSA), control, read-out: MIC
  MIC: ≤ 0.063 µg/mL
[2]; [5]
  MIC: > 128 µg/mL
[2]; [6]
  MIC: 64 µg/mL (≈ 177 µM)
[2]; [7]
  MIC: 32 µg/mL (≈ 88.6 µM)
[3]; [8]
  MIC: 1 µg/mL (≈ 2.77 µM)
[3]; [9]
  MIC: 1 µg/mL (≈ 2.77 µM)
[3]; [10]
  MIC: 1 µg/mL (≈ 2.77 µM)
[3]; [11]
  MIC: 64 µg/mL (≈ 177 µM)
[3]; [12]
  MIC: 1 µg/mL (≈ 2.77 µM)
[3]; [13]
  MIC: 64 µg/mL (≈ 177 µM)
[3]; [14]
  MIC: 1 µg/mL (≈ 2.77 µM)
[3]; [15]
  MIC: 32 µg/mL (≈ 88.6 µM)
[3]; [16]
  MIC: 32 µg/mL (≈ 88.6 µM)
[3]; [17]
  MIC: 2 µg/mL (≈ 5.53 µM)
[3]; [18]
  MIC: 1 µg/mL (≈ 2.77 µM)
[3]; [19]
  MIC: 64 µg/mL (≈ 177 µM)
[3]; [20]
  MIC: 64 µg/mL (≈ 177 µM)
[3]; [21]
  MIC: 2 µg/mL (≈ 5.53 µM)
[3]; [22]
  MIC: 1 µg/mL (≈ 2.77 µM)
[3]; [23]
  MIC: 2 µg/mL (≈ 5.53 µM)
[3]; [24]
  MIC: 1 µg/mL (≈ 2.77 µM)
[3]; [25]
  MIC: 1 µg/mL (≈ 2.77 µM)
[4]; [26]
  MIC: 0.125 µg/mL (≈ 0.346 µM)
[4]; COL, MRSA
  MIC: 0.5 µg/mL (≈ 1.38 µM)
[4]; [27]
  MIC: ≤ 0.063 µg/mL
[4]; ISA12-1, MRSA
  MIC: 0.25 µg/mL (≈ 0.692 µM)
[4]; ISA12-2, MRSA
  MIC: 0.25 µg/mL (≈ 0.692 µM)
[4]; ISA35-1, MRSA
  MIC: 1 µg/mL (≈ 2.77 µM)
[4]; ISA37-1, MSSA
  MIC: 0.25 µg/mL (≈ 0.692 µM)
[4]; ISA49-1, MSSA
  MIC: 0.25 µg/mL (≈ 0.692 µM)
[4]; ISA51-1, MSSA
  MIC: 0.25 µg/mL (≈ 0.692 µM)
[4]; ISA56-3, MRSA
  MIC: 0.25 µg/mL (≈ 0.692 µM)
[4]; ISA58-1, MRSA
  MIC: 0.5 µg/mL (≈ 1.38 µM)
[4]; ISA62-1, MRSA
  MIC: 0.25 µg/mL (≈ 0.692 µM)
[4]; ISA73-1, MSSA
  MIC: 0.125 µg/mL (≈ 0.346 µM)
[4]; KBSA32, MRSA
  MIC: 0.125 µg/mL (≈ 0.346 µM)
[4]; KBSA34, MRSA
  MIC: 0.25 µg/mL (≈ 0.692 µM)
[4]; KBSA72, MRSA
  MIC: > 128 µg/mL
[4]; KBSA96, MRSA
  MIC: 8 µg/mL (≈ 22.1 µM)
[4]; KBSA171, MRSA
  MIC: 16 µg/mL (≈ 44.3 µM)
[4]; KSA24, MRSA
  MIC: 8 µg/mL (≈ 22.1 µM)
[4]; KSA31, MRSA
  MIC: 4 µg/mL (≈ 11.1 µM)
[4]; KSA36, MRSA
  MIC: > 128 µg/mL
[4]; [28]
  MIC: 0.25 µg/mL (≈ 0.692 µM)
[4]; [29]
  MIC: 32 µg/mL (≈ 88.6 µM)
[4]; MW2, CA-MRSA
  MIC: 0.125 µg/mL (≈ 0.346 µM)
[4]; N315, MRSA
  MIC: 0.125 µg/mL (≈ 0.346 µM)
